From patent US5230998A, “Method for the prescreening of drugs targeted to the V3 hypervariable loop of the HIV-1 envelope glycoprotein gp 120” (priority 1991, dated 1993)
Converted amounts (≈) assume the structure as drawn.

Tests used:
[1] = molecular target: T1, HIV-1 gp120 V3 hypervariable loop (Human immunodeficiency virus type 1 group M subtype B, UniProt P03375); assay: biochemical; assay type: binding; details: for Inhibitory activity: Table 1, reaction between HIV-1 gp120 and anti-V3 loop antibodies; for inhibition at 50 µg/mL: read-out: percentage of inhibition; on Inhibitory activity: key: Chemicals with inhibitory activity are indicated by +
T1 construct: Polystyrene plates coated with recombinant gp120 and gp160, respectively; purchased American Bio-Technologies, Inc., Cambridge, Mass; host or cells: baculovirus expression system
Procedure: Wells of 96 well polystyrene plates (Immulon 2, Dynatech Laboratories, Inc., Chantilly, Va.) were coated with synthetic peptides (200 μl; 20μg/ml in 0.1 M Tris-HCl, pH 8.8) overnight at 20° C. The peptides were from the sequence of HIV-1, clone BH 10 envelope glycoproteins gp120 and gp41 (Neurath, A. R., Strick, N., and Lee, E. Y. S. (1990), "B-cell Epitope Mapping of Human Immunodeficiency virus (HIV-1) Envelope Glycoprotein with Long (19 to 36-residue) Synthetic Peptides", J. Gen. Virol., 71., 85-95) and from V3 hypervariable loops of 21 distinct HIV-1 isolates (clones) Neurath, A. R., and Strick, N., (1990), "Confronting the Hypervariability of an Immunodominant Epitope Eliciting Virus Neutralizing Antibodies from the Envelope Glycoprotein of the Human Immunodeficiency Virus Type 1 (HIV-1)", Molec. Immunol., 27, 539-549. The latter peptides corresponded to full-length V3 loops generated by disulfide bonds between N- and C- terminal cysteine residues. After washing with 0.14 M NaCl, 0.01 M Tris, 0.02% NaN3 (TS), the wells were postcoated with a mixture of bovine serum albumin (BSA) and gelatine (10 and 2.5 mg/ml, respectively) in TS. BSA was omitted from the postcoating solution for RIA tests in which antibodies to ATA were used. Polystyrene plates coated with recombinant gp120 and gp160, respectively, (500 ng/well; from American Bio-Technologies, Inc., Cambridge, Mass. and MicroGeneSys, Inc., West Haven, Conn., respectively) were also used for RIA and ELISA tests.
To define sites on gp120/gp41 reacting with ATA, the inhibitory effect of this compound was studied by RIA tests using gp120- and gp160-coated wells, respectively, and antisera (final dilutions 1:150) against synthetic peptides from the entire sequence of gp120/gp41 of HIV-1 BH 10. The preparation and biological properties of these antisera were described elsewhere (Neurath et al., (1990), J. Gen. Virol., 71, 85-95). Each of the antisera was diluted in a mixture of fetal bovine serum and goat serum (9:1) containing 0.1% Tween 20, adjusted to pH 8. ATA (final concentration 50 μg/ml) was added in one set of assays, but was omitted from a parallel set. After incubation overnight at 25° C., the plates were washed with TS. Attached rabbit IgG was detected using ^125 I-labeled anti-rabbit IgG, as described before (Neurath et al., 1990, J. Gen. Virol., 71, 85-95). Similarly, the inhibitory effect of ATA on the reaction of peptides derived from gp120/gp41 and of peptides derived from V3 hypervariable loops from gp120 of distinct HIV-1 isolates with the respective homologous anti-peptide antisera was studied. In the latter case, antisera were diluted 1:1,000 for the assays.
The inhibitory effect of ATA and of other compounds on the reaction between antibodies with predetermined specificity and gp120 (or synthetic peptides derived from it) was determined from the formula: [formula] An analogous formula was used to calculate the percentage of inhibition from optical density readings resulting from ELISA tests.
Chemicals other than ATA were screened for inhibitory activity essentially as described above. […] Chemicals with inhibitory activity established by the respective immunoassays were screened further for antiviral activity.
Commercially available ATA is a mixture of monomers and polymers of distinct molecular masses (Gonzalez et al., (1979) Biochem. Biophys. Acta, 562, 534-545); Cushman et al., (1991), J. Chem., 34, 329-337). The monomers [molecular mass (M.W.)=422.4 daltons] were separated from the polymers. ATA (20 mg/ml in the form of free acid neutralized with 0.4 M NaOH) was dialyzed against H2 O in a dialysis membrane with a molecular mass cutoff of 500 daltons.

HIV-1 = assay: Antiviral activity: inhibition of P24 production in MT-2 cells; assay type: cell-based, HIV-1 IIIB; parameters: inhibition: dose or concentration left out as unconfirmed; details: Human immunodeficiency virus 1, MT2, Table 1; for EC50: read-out: EC50 (concentration at which the production of P24 was reduced to 50% of that detected in control cultures); for inhibition: read-out: percentage of inhibition of P24 nucleoprotein production
Procedure: All chemicals were tested at serial two-fold dilutions (1.25-80 μg/ml, prepared from a stock solution containing 10 mg/ml in dimethylsulfoxide). The chemicals were obtained from Aldrich, Milwaukee, Wis. or were synthesized. Their inhibitory activity was determined by two distinct methods, based on inhibition of synthesis of core protein P24 and on protection by the chemicals of cells against the cytopathic effect of HIV-1 (colorimetric method) respectively.
The chemicals were serially diluted in RPMI 1640 medium without phenol red (GIBCO, Grand Island, N.Y.) containing 10% fetal calf serum (FCS). Aliquots of the diluted solutions were added to wells of 96 well plates and mixed with an equal volume of diluted HIV-1 [multiplicity of infection (MOI) =0.0045]. After incubation for 1 hour at 37° C., 25 μl of polybrene (1 μg/ml) treated MT-2 cells (Harada, S., Koyanagi, Y., Yamamoto, N., (1985), "Infection of HTLV-III/LAV in HTLV-I-carrying Cells MT-2 and MT-4 and Application in a Plaque Assay", Science, 229, 563-566), (5,000 cells/well) were added. The mixture was incubated for 1 hour at 37° C. and the volume was adjusted with RPMI 1640 medium with 10% FCS to 200 μl. On the fourth day after incubation at 37° C., 100 μl of culture supernatants were collected from each well and equal volumes of fresh medium were added to the wells. The supernatants were assayed for P24 using a kit from Coulter Immunology (Hialeah, Fla.). On the sixth day, an indicator XTT tetrazolium dye (1 mg/ml; 50 μl/well; PolySciences, Inc., Warrington, Penna.) was added to the cells. After 4 hours, intracellular formazan was determined colorimetrically at 450 nm.
^c Chemicals with inhibitory activity in ELISA (RIA) tests were teste
^d EC50 = concentration at which the production of P24 was […]

Row | Structure (SMILES) | Inhibitory activity [1] | inhibition at 50 µg/mL [1] | EC50 (HIV-1) | inhibition (HIV-1)
1 | Nc1ccc2c3c(cccc13)-c1ccccc1-2 [compound 65] | + | 27.4% | 3 µg/mL (≈ 13.8 µM) | 100%
2 | O=C(O)CCC1=C(CC(=O)O)c2cc3[nH]c(cc4nc(cc5[nH]c(cc1n2)c(CC(=O)O)c5CCC(=O)O)C(CC(=O)O)=C4CCC(=O)O)c(CC(=O)O)c3CCC(=O)O [compound 163] | + | 41.1% | 9.8 µg/mL (≈ 11.8 µM) | 99%
3 | Nc1ccc2c(c1)Cc1cc(Br)ccc1-2 [compound 63] | + | 37.1% | 68 µg/mL (≈ 261 µM) | 19%
4 | C=CC1=C(C)c2cc3[nH]c(cc4nc(cc5[nH]c(cc1n2)c(C)c5CO)C(C)=C4CCC(=O)O)c(CCC(=O)O)c3C [compound 152] | + | 82.6% | 3 µg/mL (≈ 5.29 µM) | 100%
5 | O=C(O)C1=CC(I)=CC(=C(c2cc(I)cc(C(=O)O)c2O)c2cc(I)cc(C(=O)O)c2O)C1=O [compound 131] | + | 74.8% | 71 µg/mL (≈ 88.7 µM) | 41%
6 | Nc1ccccc1-c1ccccc1 [compound 50] | + | 70.5% |  | 
7 | c1cnc2c(c1)CCCCCCCCCC2 [compound 67] | + | 36.8% | 37 µg/mL (≈ 170 µM) | 53%
8 | c1ccc(CNc2ccccc2)cc1 [compound 42] | + | 28.8% |  | 
9 | CC1=C(C(=O)O)C(=O)C(C(C)(C)C)=CC1=C(c1cc(C(C)(C)C)c(O)c(C(=O)O)c1C)c1cc(C(C)(C)C)c(O)c(C(=O)O)c1C [compound 130] | + | 38.6% | 80 µg/mL (≈ 126 µM) | 38%
10 | C=CC1=C(C)c2cc3[nH]c(cc4nc(cc5[nH]c(cc1n2)c(C)c5C=C)C(C)=C4CCC(=O)O)c(CCC(=O)O)c3C [compound 158] | + | 55.8% | 1 µg/mL (≈ 1.78 µM) | 100%
11 | O=Cc1ccc(-c2ccccc2)cc1 [compound 93] | + | 21% | > 80 µg/mL | 32%
12 | C1=Cc2nc1c(-c1ccncc1)c1ccc([nH]1)c(-c1ccncc1)c1nc(c(-c3ccncc3)c3ccc([nH]3)c2-c2ccncc2)C=C1 [compound 161] | + | 66.4% | > 80 µg/mL | 0%
13 | CC1=C(CCC(=O)O)c2cc3[nH]c(cc4nc(cc5[nH]c(cc1n2)c(C(O)CO)c5C)C(C(O)CO)=C4C)c(C)c3CCC(=O)O (stereo not drawn) [compound 150] | + | 43.3% | 38.2 µg/mL (≈ 60.6 µM) | 99%
14 | O=C(O)CCC1=C(CC(=O)O)c2cc3[nH]c(cc4nc(cc5[nH]c(cc1n2)c(CCC(=O)O)c5CC(=O)O)C(CC(=O)O)=C4CCC(=O)O)c(CC(=O)O)c3CCC(=O)O [compound 164] | + | 45% | 2.3 µg/mL (≈ 2.77 µM) | 100%
15 | O=C(O)C1=CC(=C(c2ccc(O)c(C(=O)O)c2)c2ccc(O)c(C(=O)O)c2)C=CC1=O [compound 122] | + |  | 12 µg/mL (≈ 28.4 µM) | 83%
16 | O=C(O)COc1cc2oc3cc(=O)c(OCC(=O)O)cc-3c(-c3ccccc3)c2cc1OCC(=O)O [compound 129] | + | 56.8% | 15 µg/mL (≈ 30.3 µM) | 88%
17 | O=C(O)CNC(c1ccccc1)(c1ccccc1)c1ccccc1 [compound 108] | + | 33.5% |  | 
18 | CC(C)C[C@H](NC(=O)[C@H](C)NC(=O)[C@H](CC(C)C)NC(c1ccccc1)(c1ccccc1)c1ccccc1)C(=O)O [compound 114] | + | 62.1% | > 80 µg/mL | 14%
19 | O=C(O)c1ccc(-c2c3nc(c(-c4ccc(C(=O)O)cc4)c4ccc([nH]4)c(-c4ccc(C(=O)O)cc4)c4nc(c(-c5ccc(C(=O)O)cc5)c5ccc2[nH]5)C=C4)C=C3)cc1 [compound 160] | + | 84.3% | 1.3 µg/mL (≈ 1.64 µM) | 100%
20 | O=C(O)CC(c1ccccc1)(c1ccccc1)c1ccccc1 [compound 2] | + | 27% |  | 
21 | O=C1OC(=O)C2C3c4ccccc4C(c4ccccc43)C12 (stereo not drawn) [compound 106] | + | 77.5% | 18 µg/mL (≈ 65.1 µM) | 82%
22 | O=c1cc2oc3cc(O)c(O)cc3c(-c3ccccc3)c-2cc1O [compound 128] | + | 58.6% | 27 µg/mL (≈ 84.3 µM) | 85%
23 | CC(=O)C1=CC(=C(c2ccc(O)c(C(C)=O)c2)c2ccc(O)c(C(C)=O)c2)C=CC1=O [compound 140] | + | 69.4% |  | 
